Our source for the IC50 values is patent US20220056037A1 (SPV THERAPEUTICS INC., priority 2018, published 2022).

What is called IC50 is the point on the concentration scale where inhibition reaches its midpoint.

Test in all cases: 2D cell proliferation assay (CellTiter-Blue)
Common to all, as to format: cell-based
On the technique in general: Resazurin is reduced to fluorescent resorufin, in cell work by metabolically active cells.

The test system of assay [1] is GXA MKN45. To be noted: Homo sapiens, MKN-45, 72 h; cell line GXA MKN45; three days of treatment; read-out: IC (abs. IC50). As to the method:
(§1) Viability of the cells was analyzed by using the CellTiter-Blue® Cell Viability Assay (Promega), and was performed according to manufacturer's instructions. Briefly, cells were harvested from exponential phase cultures (Chapter 6.6), counted and plated in 96-well flat-bottom microtiter plates at a cell density of 4,000-60,000 cells/well in a volume of 140 μl per well. After a 24 hours recovery period, 10 μL cell culture medium (six control wells/plate) or culture medium with test compound were added (Chapter 6.2). The compounds were applied at five concentrations in full-log increments up to 100 μM in duplicate. Cultures were incubated at 37° C. and 5% CO2 in a humidified atmosphere for another three days. After three days of treatment, 20 μl/well CellTiter-Blue® reagent was added. Following incubation with CellTiter-Blue® reagent for up to four hours, fluorescence (FU) was measured by using the Enspire Multimode Plate Reader (excitation λ=570 nm, emission λ=600 nm). For calculations, the mean values of duplicate/sextuplicate (untreated control) data were used.
(§2) Drug effects were expressed in terms of the percentage of the fluorescence signal, obtained by comparison of the mean signal in the treated wells with the mean signal of the untreated controls (expressed by the test-versus-control value, T/C-value [%]):
(§3) IC values are reported as relative IC50 values and absolute IC50 and IC70 values. […] The absolute IC70 value gives the concentration of the test compound that achieves T/C=30%. The relative IC50 value is the concentration of test compound that gives a response half way between the top and bottom plateau of the sigmoidal concentration-response curve (inflection point of the curve). Calculation was done by 4parameter non-linear curve fit (Oncotest Data Warehouse Software).
(§4) If an IC50 or IC70 value could not be determined within the examined dose range (because a compound was either too active or lacked activity), the lowest or highest concentration studied was used for calculation of the geometric mean value.
(§5) The overall potency of a compound was determined by the geometric mean IC50/IC70 values of all individual IC50/IC70 values. In the heatmap representation of IC50 and IC70 values, the distribution of the IC50 or IC70 values obtained for a test compound in the individual cell lines is given in relation to the geometric mean […] or IC70 value, obtained over all PDX models tested. The individual IC values range from 1/32-fold geometric mean IC (corresponding to very potent compound activity or high tumor sensitivity) to 32-fold geometric mean IC (corresponding to lack of compound activity or tumor resistance). The heatmap presentation, therefore, represents an antiproliferative “fingerprint” profile of a test compound.

In assay [2] the test system is MAXFTN MDA-MB-468 (ER −). The following applies: Homo sapiens, 72 h; cell line MAXFTN MDA-MB-468 (ER −); three days of treatment; read-out: IC (abs. IC50). As to the method:
as §1, §2, §3, §4, §5

In assay [3] the test system is CXF COLO 205. The following applies: Homo sapiens, 72 h; cell line CXF COLO 205; three days of treatment; read-out: IC (abs. IC50). How it is done:
as §1, §2, §3, §4, §5

The subject of assay [4] is MEXF A2058. To be noted: Homo sapiens, 72 h; cell line MEXF A2058; three days of treatment; read-out: IC (abs. IC50). How it is done: as §1, §2, §3, §4, §5
The subject of assay [5] is CXF Caco-2. The following applies: Homo sapiens, 72 h; cell line CXF Caco-2; three days of treatment; read-out: IC (abs. IC50). How it is done: as §1, §2, §3, §4, §5
Assay [6] has as its system PAXF BxPC-3. The following applies: Homo sapiens, 72 h; cell line PAXF BxPC-3; three days of treatment; read-out: IC (abs. IC50). As to the method: as §1, §2, §3, §4, §5
Assay [7] deals with MAXFLB MCF7 (ER +). To be noted: Homo sapiens, 72 h; cell line MAXFLB MCF7 (ER +); three days of treatment; read-out: IC (abs. IC50). How it is done:
as §1, §2, §3, §4, §5

Assay [8] deals with PRXF 22Rv1. To be noted: Homo sapiens, 72 h; cell line PRXF 22Rv1; three days of treatment; read-out: IC (abs. IC50). How it is done:
as §1, §2, §3, §4, §5

The test system of assay [9] is MAXFTN ZR-75-1 (ER +). To be noted: Homo sapiens, 72 h; cell line MAXFTN ZR-75-1 (ER +); three days of treatment; read-out: IC (abs. IC50). As to the method:
as §1, §2, §3, §4, §5

For assay [10], the system named is LEXFCM K-562. To be noted: Homo sapiens, K562, 72 h; cell line LEXFCM K-562; three days of treatment; read-out: IC (abs. IC50). How it is done:
as §1, §2, §3, §4, §5

The subject of assay [11] is MAXFHER SK-BR-3. The following applies: Homo sapiens, 72 h; cell line MAXFHER SK-BR-3; three days of treatment; read-out: IC (abs. IC50). As to the method:
as §1, §2, §3, §4, §5

Assay [12] relates to LXFE Calu-1. The following applies: Homo sapiens, 72 h; cell line LXFE Calu-1; three days of treatment; read-out: IC (abs. IC50). As to the method:
as §1, §2, §3, §4, §5

Assay [13] concerns MEXF WM-266-4. To be noted: Homo sapiens, 72 h; cell line MEXF WM-266-4; three days of treatment; read-out: IC (abs. IC50). As to the method:
as §1, §2, §3, §4, §5

In assay [14] the test system is MAXFLB 147D (ER +). The following applies: 72 h; cell line MAXFLB 147D (ER +); three days of treatment; read-out: IC (abs. IC50). As to the method: as §1, §2, §3, §4, §5
For assay [15], the system named is CEXF HeLa. To be noted: Homo sapiens, 72 h; cell line CEXF HeLa; three days of treatment; read-out: IC (abs. IC50). As to the method: as §1, §2, §3, §4, §5
Assay [16] has as its system UXF EFE-184. The following applies: Homo sapiens, 72 h; cell line UXF EFE-184; three days of treatment; read-out: IC (abs. IC50). As to the method:
as §1, §2, §3, §4, §5

Assay [17] relates to MEXF MDA-MB-435. To be noted: Homo sapiens, 72 h; cell line MEXF MDA-MB-435; three days of treatment; read-out: IC (abs. IC50). As to the method: as §1, §2, §3, §4, §5
Assay [18] deals with LYXFNH U-937. The following applies: Homo sapiens, 72 h; cell line LYXFNH U-937; three days of treatment; read-out: IC (abs. IC50). How it is done: as §1, §2, §3, §4, §5

Take `CN1CCN(c2ccc(Nc3ncc4cc(C(=O)N(C)C)n(C56CC(C5)C6)c4n3)cc2)CC1` [SPV113]: the IC50 is 1080 nM in assay [1]; 290 nM in assay [2]; 148 nM in assay [3]; 1510 nM in assay [4]; at least 100000 nM in [5]; 193 nM in [6]. Further, the IC50 in assay [7] is 173 nM; in assay [8] it was at most 10 nM; in assay [9], 12600 nM; in assay [10], 1150 nM; in [11], 2040 nM; in assay [12] it was 1560 nM. Also, the IC50 in [13] was 3300 nM; in assay [14], 3470 nM; in assay [15] it was 329 nM; in assay [16], 906 nM; in [17], 296 nM; in assay [18], at most 10 nM.
